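Exposure lasted 48 hours, with cells grown in 96-well plates and compounds tested at five concentrations. At the GI50, growth is halved.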 Calls of active or inactive are those of the source. Rule as the data show it: active = GI50 up to about 1.1 µM and inactive = higher. *1 amine or outer side, *2 acyl side, *3 side chain or, on linkers, in order; H or OH if unused. Where a SMILES comes first, the peptide text is derived from it. Bridges are numbered along the chain shown (N, C = ends). [ ]: non-standard residue; d: D form. ξ: configuration not given here. X10 = CCC(C)C(N[*:1])C(O)CC(=O)O[C@H](C(=O)C(C)C(=O)[*:2])C(C)C; NMeY = CN[C@@H](Cc1ccc(O)cc1)C(=O)O; ξNMeL = CNC(CC(C)C)C(=O)O; ξT = CC(O)C(N)C(=O)O
Legend:
Assay in all cases: growth of human tumour cells (NCI), 48 h
[1] = test system: ACHN
[2] = test system: K562
[3] = test system: COLO 205
[4] = test system: NCI-H460
[5] = test system: SNB-19
[6] = test system: PC-3
[7] = test system: SN12C
[8] = test system: M14
[9] = test system: SK-MEL-28
[10] = test system: OVCAR-3
[11] = test system: SK-MEL-5
[12] = test system: 786-0
[13] = test system: NCI-H23
[14] = test system: MOLT-4
[15] = test system: NCI/ADR-RES
[16] = test system: MCF7
[17] = test system: UO-31
[18] = test system: U-251
[19] = test system: LOX IMVI
[20] = test system: Malme-3M
[21] = test system: HCT-116
[22] = test system: NCI-H226
[23] = test system: SW-620
[24] = test system: CCRF-CEM
[25] = test system: OVCAR-5
[26] = test system: CAKI-1
[27] = test system: MDA-N
[28] = test system: MDA-MB-435
[29] = test system: T47D
[30] = test system: UACC-62
[31] = test system: SNB-75
[32] = test system: HCC 2998
[33] = test system: HCT-15
[34] = test system: Hs-578T
[35] = test system: HT-29
[36] = test system: EKVX
[37] = test system: HOP-92
[38] = test system: SK-OV-3
[39] = test system: IGROV-1
[40] = test system: HOP-62
[41] = test system: OVCAR-8
[42] = test system: RPMI-8226
[43] = test system: SR
[44] = test system: SK-MEL-2
[45] = test system: SF-295
[46] = test system: DU-145
[47] = test system: RXF 393
[48] = test system: NCI-H522
[49] = test system: OVCAR-4
[50] = test system: BT-549
[51] = test system: UACC-257
[52] = test system: A498
[53] = test system: HL-60
[54] = test system: MDA-MB-231
[55] = test system: SF-268
[56] = test system: SF-539
[57] = test system: KM12
[58] = test system: A549
[59] = test system: TK-10

What does the source list for `CCC(C)C1NC(=O)C(NC(=O)C(CC(C)C)N(C)C(=O)[C@@H]2CCCN2)C(C)OC(=O)[C@H](Cc2ccc(OC)cc2)N(C)C(=O)[C@@H]2CCCN2C(=O)[C@H](CC(C)C)NC(=O)C(C)C(=O)[C@H](C(C)C)OC(=O)CC1O` (some centres undefined) (H-P[ξNMeL][ξT][X10]LP[NMeY](Me); ester 3-C)?
GI50 [1]: 2.34 nM (active); GI50 [2]: 0.325 nM (active); GI50 [3]: 0.153 nM (active); GI50 [4]: 0.249 nM (active); GI50 [5]: 0.721 nM (active); GI50 [6]: 1.06 nM (active); GI50 [7]: 0.411 nM (active); GI50 [8]: 0.222 nM (active); GI50 [9]: 0.14 nM (active); GI50 [10]: 1.36 nM (active); GI50 [11]: < 0.1 nM (active); GI50 [12]: 0.564 nM (active); GI50 [13]: 0.258 nM (active); GI50 [14]: 0.244 nM (active); GI50 [15]: 52.1 nM (active); GI50 [16]: < 0.1 nM (active); GI50 [17]: 21.4 nM (active); GI50 [18]: < 0.1 nM (active); GI50 [19]: < 0.1 nM (active); GI50 [20]: 0.317 nM (active); GI50 [21]: < 0.1 nM (active); GI50 [22]: < 10 nM (active); GI50 [23]: 0.555 nM (active); GI50 [24]: 0.493 nM (active); GI50 [25]: < 10 nM (active); GI50 [26]: 8.69 nM (active); GI50 [27]: 0.346 nM (active); GI50 [28]: 0.47 nM (active); GI50 [29]: 0.185 nM (active); GI50 [30]: < 0.1 nM (active); GI50 [31]: 0.682 nM (active); GI50 [32]: 0.438 nM (active); GI50 [33]: 16 nM; GI50 [34]: < 10 nM (active); GI50 [35]: 0.195 nM (active); GI50 [36]: < 10 nM (active); GI50 [37]: 1.21 nM (active); GI50 [38]: 0.386 nM (active); GI50 [39]: 0.288 nM (active); GI50 [40]: 1.26 nM (active); GI50 [41]: 2.21 nM (active); GI50 [42]: 1.16 nM (active); GI50 [43]: 0.317 nM (active); GI50 [44]: < 10 nM (active); GI50 [45]: 1.44 nM (active); GI50 [46]: 2.27 nM (active); GI50 [47]: < 10 nM (active); GI50 [48]: 0.366 nM (active); GI50 [49]: 0.139 nM (active); GI50 [50]: 1.56 nM (active); GI50 [51]: 0.815 nM (active); GI50 [52]: 4.11 nM (active); GI50 [53]: 3.89 nM (active); GI50 [54]: 0.42 nM (active); GI50 [55]: 0.267 nM (active); GI50 [56]: 0.322 nM (active); GI50 [57]: < 10 nM (active); GI50 [58]: 0.533 nM (active); GI50 [59]: 3.55 nM (active)
